{"source": "patent US4055637A", "about": "“Medicinal preparation for healing wounds and treating dermatites using 1-(chloromethyl)silatrane” (priority 1975, dated 1977)", "experiment": "solubility and physical properties of the active principle", "type": "physicochemical"}
{"smiles": "ClC[Si]12OCCN(CCO1)CCO2", "note": "[1-(chloromethyl)silatrane]", "values": [{"measurement": "solubility in alcohol", "setting": "alcohol", "result": "difficultly soluble"}, {"measurement": "solubility in chloroform", "setting": "chloroform", "result": "readily soluble"}, {"measurement": "sterilizability", "setting": "dry state", "result": "sterilizable in a dry state"}, {"measurement": "solubility in ether", "setting": "ether", "result": "insoluble"}, {"measurement": "solubility in water", "setting": "water", "result": "poorly soluble"}, {"measurement": "hygroscopicity", "setting": "white crystalline powder", "result": "non-hygroscopic"}]}
